From patent publication US11327083B2, “Treatment and differential diagnosis of Cushing's disease and ectopic Cushing's syndrome” (Corcept Therapeutics, Inc., priority 2016, dated 2022)

Tests used:
[1] = system: patients having Cushing's Disease; assay: Mean plasma cortisol to ACTH (C:A) ratio during mifepristone treatment, patients having Cushing's Disease; type: in vivo, human
Experimental: (§1) Two groups of patients, which have been previously diagnosed as having Cushing's Disease, Ectopic Cushing's Syndrome using other methods, were enrolled in the study. The investigators were blind to the patients' diagnoses. Blood samples were obtained from each patient within 6 weeks prior to the enrollment in the study (“Day 1” samples). The patients were treated with mifepristone at a starting dose 300 mg daily, increased up to 1200 mg or 20 mg/kg over a period of 10 weeks. The mifepristone treatment continued for a total period of 24 weeks. Blood samples were taken during the course of the treatment, i.e., at the end of 14 days, and 6, 10, 16 and 24 weeks from the initial dose of mifepristone was given. All samples were taken at between 8-10 am on the day of the study. The ACTH levels and the cortisol levels of the plasma produced from the blood samples collected above were assayed using two-site immunometric assays (Mayo Clinic, Test ID ACTH) following the manufacturer's instructions.

[2] = system: patients having Ectopic Cushing's Syndrome; assay: Mean plasma cortisol to ACTH (C:A) ratio during mifepristone treatment, patients having Ectopic Cushing's Syndrome; type: in vivo, human
Experimental: as §1

[3] = CD patients (n = 38), plasma, 8-10 am, mifepristone 300 mg daily increased up to 1200 mg or 20 mg/kg, Day 1 baseline mean 3.018
[4] = Ectopic patients (n = 3), plasma, 8-10 am, mifepristone 300 mg daily increased up to 1200 mg or 20 mg/kg, Day 1 baseline mean 18.552

Question: Which “mean ratio of cortisol to ACTH, Week 16” value ([1]; CD patients (n = 32), plasma, 8-10 am, mifepristone 300 mg daily increased up to 1200 mg or 20 mg/kg, Day 1 baseline mean 3.018) does the source give for `CC#C[C@]1(O)CC[C@H]2[C@@H]3CCC4=CC(=O)CCC4=C3[C@@H](c3ccc(N(C)C)cc3)C[C@@]21C` [mifepristone, 17-β-hydrox-11-β-(4-dimethyl-aminophenyl)17-α-(1-propynyl)estra-4,9-dien-3-one] here?
Answer: The value was 5.788.

Question: And the “mean ratio of cortisol to ACTH, Week 10” value ([1]; CD patients (n = 33), plasma, 8-10 am, mifepristone 300 mg daily increased up to 1200 mg or 20 mg/kg, Day 1 baseline mean 3.018)?
Answer: Its value is 6.852.

Question: What about the “mean ratio of cortisol to ACTH, Week 6” value [1, 3] of the same compound?
Answer: Its value is 3.396.

Question: What about the “mean ratio of cortisol to ACTH, Week 24/ET” value [1, 3] of the same compound?
Answer: Its value is 4.999.

Question: And the “mean GRA-exposed C:A ratio relative to the mean baseline C:A ratio (peak)” value ([1]; Cushing's Disease patients, peak at the end of 10 weeks of mifepristone treatment)?
Answer: The value was “more than 2 fold”.

Question: What about the “mean GRA-exposed C:A ratio as % of the baseline ratio” value ([2]; Ectopic Cushing's Syndrome patients, end of 24 weeks treatment) of the same compound?
Answer: The value was 11.6%.

Question: What about the “mean GRA-exposed C:A ratio as % of the mean baseline ratio” value ([2]; Ectopic Cushing's Syndrome patients, end of the six weeks' treatment) of the same compound?
Answer: The value was “less than 50%”.

Question: And the “mean ratio of cortisol to ACTH, Week 6” value [2, 4]?
Answer: Its value is 9.241.

Question: And the “mean ratio of cortisol to ACTH, Week 10” value [2, 4]?
Answer: The value was 6.722.

Question: What about the “mean ratio of cortisol to ACTH, Week 16” value [2, 4] of the same compound?
Answer: The value was 0.600.

Question: And the “mean ratio of cortisol to ACTH, Week 24/ET” value [2, 4]?
Answer: Its value is 2.154.
